Measured values as given in ChEMBL document CHEMBL5143565, “Toll-like receptor 7 and 8 imidazoquinoline-based agonist/antagonist pairs” (Bioorg Med Chem Lett, 2022).

Tests used:
Toll-like receptor 7 = target: T1, Toll-like receptor 7 (Homo sapiens, UniProt Q9NYK1); assay: Agonist activity at TLR7 in human HEK-SEAP reporter cell assessed as NF-kappaB activation; format: cell-based
T1 sequence (Q9NYK1 whole entry): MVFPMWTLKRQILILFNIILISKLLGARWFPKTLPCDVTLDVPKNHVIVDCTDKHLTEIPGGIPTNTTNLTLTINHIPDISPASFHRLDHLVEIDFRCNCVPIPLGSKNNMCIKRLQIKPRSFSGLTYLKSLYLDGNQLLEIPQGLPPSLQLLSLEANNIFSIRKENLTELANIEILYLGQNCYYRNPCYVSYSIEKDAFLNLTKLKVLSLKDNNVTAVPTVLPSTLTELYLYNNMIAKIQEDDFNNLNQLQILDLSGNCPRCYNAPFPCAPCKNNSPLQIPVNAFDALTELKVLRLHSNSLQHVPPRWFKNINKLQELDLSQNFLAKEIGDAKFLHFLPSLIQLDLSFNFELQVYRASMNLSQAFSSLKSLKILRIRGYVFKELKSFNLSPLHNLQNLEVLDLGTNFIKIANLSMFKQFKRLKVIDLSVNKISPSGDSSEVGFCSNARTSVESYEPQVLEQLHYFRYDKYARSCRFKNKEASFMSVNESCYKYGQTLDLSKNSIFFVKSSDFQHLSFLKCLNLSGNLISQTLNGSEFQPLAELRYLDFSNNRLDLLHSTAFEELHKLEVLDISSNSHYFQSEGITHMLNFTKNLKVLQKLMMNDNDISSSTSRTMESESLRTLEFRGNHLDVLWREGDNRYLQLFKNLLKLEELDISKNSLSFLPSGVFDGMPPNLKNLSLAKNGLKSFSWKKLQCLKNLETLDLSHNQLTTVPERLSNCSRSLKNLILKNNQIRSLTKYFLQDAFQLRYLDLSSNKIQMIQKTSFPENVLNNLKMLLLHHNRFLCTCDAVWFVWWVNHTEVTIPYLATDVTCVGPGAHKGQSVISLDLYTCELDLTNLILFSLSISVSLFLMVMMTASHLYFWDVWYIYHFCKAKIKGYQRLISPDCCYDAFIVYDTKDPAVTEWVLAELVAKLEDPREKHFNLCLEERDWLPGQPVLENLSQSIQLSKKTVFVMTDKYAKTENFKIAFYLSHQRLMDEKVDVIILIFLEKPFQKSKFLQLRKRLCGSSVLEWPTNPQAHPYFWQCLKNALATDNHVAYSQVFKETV

Toll-like receptor 8 = target: T2, Toll-like receptor 8 (Homo sapiens, UniProt Q9NR97); assay: Agonist activity at TLR8 in human HEK-SEAP reporter cell assessed as NF-kappaB activation; format: cell-based
T2 sequence (Q9NR97 whole entry): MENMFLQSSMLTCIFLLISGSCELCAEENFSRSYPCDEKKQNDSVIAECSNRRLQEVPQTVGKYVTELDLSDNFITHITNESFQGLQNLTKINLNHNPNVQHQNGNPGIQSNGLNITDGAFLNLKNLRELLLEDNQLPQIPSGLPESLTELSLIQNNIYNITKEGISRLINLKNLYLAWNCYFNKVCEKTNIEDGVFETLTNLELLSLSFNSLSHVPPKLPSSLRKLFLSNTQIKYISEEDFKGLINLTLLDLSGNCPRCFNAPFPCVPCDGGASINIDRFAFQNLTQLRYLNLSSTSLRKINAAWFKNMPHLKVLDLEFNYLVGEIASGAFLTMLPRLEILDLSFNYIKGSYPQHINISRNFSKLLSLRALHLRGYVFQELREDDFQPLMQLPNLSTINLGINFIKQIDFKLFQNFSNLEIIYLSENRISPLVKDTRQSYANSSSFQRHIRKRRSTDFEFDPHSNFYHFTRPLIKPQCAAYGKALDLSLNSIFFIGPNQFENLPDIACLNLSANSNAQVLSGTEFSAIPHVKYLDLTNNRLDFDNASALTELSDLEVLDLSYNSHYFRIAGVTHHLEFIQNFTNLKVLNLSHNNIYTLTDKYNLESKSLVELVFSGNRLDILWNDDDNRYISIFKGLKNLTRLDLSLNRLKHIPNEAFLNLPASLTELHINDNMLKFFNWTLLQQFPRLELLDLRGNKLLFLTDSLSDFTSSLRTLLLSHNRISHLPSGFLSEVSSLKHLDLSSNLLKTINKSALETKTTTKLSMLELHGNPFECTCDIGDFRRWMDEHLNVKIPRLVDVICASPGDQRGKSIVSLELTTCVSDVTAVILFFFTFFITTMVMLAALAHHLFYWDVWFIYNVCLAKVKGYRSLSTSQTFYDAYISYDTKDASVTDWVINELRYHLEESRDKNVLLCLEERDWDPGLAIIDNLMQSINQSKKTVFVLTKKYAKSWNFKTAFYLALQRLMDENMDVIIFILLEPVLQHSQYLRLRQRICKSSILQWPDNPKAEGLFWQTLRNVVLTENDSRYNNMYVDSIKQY

CC(C)Cc1nc2c(N)nc3ccccc3c2n1Cc1ccc(CN)cc1
EC50 (Toll-like receptor 7): 0.21 µM

COC(=O)c1ccc2c(c1)nc(N)c1nc(CC3CC3)n(CC(C)O)c12 (centres undefined)
EC50 (Toll-like receptor 7): 13.2 µM

CC(O)Cn1c(CC2CC2)nc2c(N)nc3ccccc3c21 (centres undefined)
EC50 (Toll-like receptor 7): 0.99 µM

CC(C)Cc1nc2c(N)nc3ccccc3c2n1CC(C)O (centres undefined)
EC50 (Toll-like receptor 8): 27 µM
